For 31 molecules, EC50 results are on record in US20260374754A1, “N-((ISOQUINOLIN-6-YL)METHYL)-1H-PYRAZOLE-4-CARBOXAMIDE DERIVATIVES AS PLASMA KALLIKREIN INHIBITORS FOR THE TREATMENT OF HEREDITARY ANGIODEMA” (Takeda Pharmaceutical Company Limited, priority 2022, published 2026).

Broadly, the EC50 is the concentration at which the effect is half-maximal.

Structures are written as SMILES. Bounds are passed on as bounds.

In the experiment the target is human activated kallikrein enzyme (Homo sapiens, UniProt P03952). Description: Inhibition of human activated plasma kallikrein, fluorogenic PFR-AMC substrate, 500 pM enzyme format. The settings on record: 500 pM activated kallikrein; 300 μM PFR-AMC; 30 min preincubation; 10 min room temperature; pH 7.5; read-out: Primary Dose Response Assay: Average EC50. In kind it is biochemical. The gist of the method:
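500 pM activated kallikrein preincubated 30 min at room temperature with inhibitors in pH 7.5 Tris/EDTA/NaCl buffer with PEG-400 and Triton X-100. Reaction started with 300 μM PFR-AMC, run 10 min at room temperature; AMC fluorescence read at ex 380/em 460 nm.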

human activated kallikrein enzyme, sequence (P03952 391-638 limits assumed): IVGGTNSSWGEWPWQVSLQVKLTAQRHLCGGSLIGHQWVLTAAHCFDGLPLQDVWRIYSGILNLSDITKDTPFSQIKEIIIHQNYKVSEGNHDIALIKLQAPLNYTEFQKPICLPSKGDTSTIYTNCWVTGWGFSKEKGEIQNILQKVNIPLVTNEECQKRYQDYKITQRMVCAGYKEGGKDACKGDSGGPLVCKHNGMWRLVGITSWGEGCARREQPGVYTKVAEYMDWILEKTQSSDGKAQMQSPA
human activated kallikrein enzyme, sequence (P03952 20-390 partner limits assumed): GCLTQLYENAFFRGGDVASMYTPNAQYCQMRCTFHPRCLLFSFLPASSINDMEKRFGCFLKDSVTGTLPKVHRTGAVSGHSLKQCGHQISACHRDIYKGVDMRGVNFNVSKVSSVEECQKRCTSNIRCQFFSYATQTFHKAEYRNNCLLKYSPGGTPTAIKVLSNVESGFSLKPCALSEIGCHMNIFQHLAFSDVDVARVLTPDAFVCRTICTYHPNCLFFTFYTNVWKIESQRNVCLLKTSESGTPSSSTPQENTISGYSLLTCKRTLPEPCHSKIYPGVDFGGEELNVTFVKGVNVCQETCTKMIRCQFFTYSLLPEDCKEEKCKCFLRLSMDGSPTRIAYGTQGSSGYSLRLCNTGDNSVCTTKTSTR

As for `Cc1cc2c(N)nccc2c(C)c1CNc1cc(N(Cc2cn3nc(C4CC4)ccc3n2)CC(F)(F)F)ncn1` [Example 516, N^4-((1-amino-5,7-dimethylisoquinolin-6-yl)methyl)-N^6-((6-cyclopropylimidazo[1,2-b]pyridazin-2-yl)methyl)-N6-(2,2,2-trifluoroethyl)pyrimidine-4,6-diamine], the EC50 is 10 to 100 nM.

Consider `Cc1cc2c(N)nccc2c(C)c1CNc1cc2c(ccn2Cc2ccc3ncccc3c2)cn1` [Example 517, 5,7-dimethyl-6-(((1-(quinolin-6-ylmethyl)-1H-pyrrolo[3,2-c]pyridin-6-yl)amino)methyl)isoquinolin-1-amine], for which the 50% effective concentration (EC50) is 100 to 1000 nM.

For `Cc1cc2c(N)nccc2c(C)c1CNc1cc2c(ccn2Cc2ccc3ncc(Cl)cc3c2)cn1` [Example 518, 6-(((1-((3-chloroquinolin-6-yl)methyl)-1H-pyrrolo[3,2-c]pyridin-6-yl)amino)methyl)-5,7-dimethylisoquinolin-1-amine], the half-maximal effective concentration (EC50) is more than 1000 nM.

As for `Cc1cc2c(N)nccc2c(C)c1CNc1ccc2nnc(Cc3ccc4ncc(Cl)cc4c3)n2c1` [Example 519, 6-(((3-((3-chloroquinolin-6-yl)methyl)-[1,2,4]triazolo[4,3-a]pyridin-6-yl)amino)methyl)-5,7-dimethylisoquinolin-1-amine], the EC50 fell in the range of 100 to 1000 nM.

`Cc1cc2c(N)nccc2c(C)c1CNc1ccc2cnc(Cc3ccc4ncc(Cl)cc4c3)n2c1` [Example 520, 6-(((3-((3-chloroquinolin-6-yl)methyl)imidazo[1,5-a]pyridin-6-yl)amino)methyl)-5,7-dimethylisoquinolin-1-amine]: the half-maximal effective concentration (EC50) is more than 1000 nM.

For the molecule `Cc1cc2c(N)nccc2c(C)c1CNc1ccc2ncc(C(O)c3ccc4ccccc4c3)n2c1` (stereo not shown) [Example 521, (6-(((1-amino-5,7-dimethylisoquinolin-6-yl)methyl)amino)imidazo[1,2-a]pyridin-3-yl)(naphthalen-2-yl)methanol], the EC50 was more than 1000 nM.

On to `Cc1cc2c(N)nccc2c(C)c1CNc1ccc2ncc(Cc3ccc4ccccc4c3)n2c1` [Example 522, 5,7-dimethyl-6-(((3-(naphthalen-2-ylmethyl)imidazo[1,2-a]pyridin-6-yl)amino)methyl)-isoquinolin-1-amine], for which the EC50 was more than 1000 nM.

Take `Cc1cc2c(N)nccc2c(C)c1CNc1cn2c(Cc3ccc4ccccc4c3)ncc2cn1` [Example 523, 5,7-dimethyl-6-(((3-(naphthalen-2-ylmethyl)imidazo[1,5-a]pyrazin-6-yl)amino)methyl)isoquinolin-1-amine]: the EC50 was more than 1000 nM.

As to `Cc1cc2c(N)nccc2c(C)c1CNc1cc2c(Cc3ccc4ccccc4c3)cn(C)c2cn1` [Example 524, 5,7-dimethyl-6-(((1-methyl-3-(naphthalen-2-ylmethyl)-1H-pyrrolo[2,3-c]pyridin-5-yl)amino)methyl)isoquinolin-1-amine], the concentration for a half-maximal effect (EC50) is more than 1000 nM.

As to `Cc1cc2c(N)nccc2c(C)c1CNc1nccn2cc(Cc3ccc4ccccc4c3)nc12` [Example 525, 5,7-dimethyl-6-(((2-(naphthalen-2-ylmethyl)imidazo[1,2-a]pyrazin-8-yl)amino)methyl)isoquinolin-1-amine], the EC50 was 100 to 1000 nM.

As to `Cc1cc2c(N)nccc2c(C)c1CNc1cc2c(Cc3ccc4ccccc4c3)c[nH]c2cn1` [Example 526, 5,7-dimethyl-6-(((3-(naphthalen-2-ylmethyl)-1H-pyrrolo[2,3-c]pyridin-5-yl)amino)methyl)isoquinolin-1-amine], the EC50 was more than 1000 nM.

With `Cc1cc2c(N)nccc2c(C)c1CNc1cnc2[nH]cc(Cc3ccc4ccccc4c3)c2c1` [Example 527, 5,7-dimethyl-6-(((3-(naphthalen-2-ylmethyl)-1H-pyrrolo[2,3-b]pyridin-5-yl)amino)methyl)isoquinolin-1-amine], the concentration for a half-maximal effect (EC50) was more than 1000 nM.

In the case of `Cc1cc2c(N)nccc2c(C)c1CNc1cc2c(ccn2Cc2ccc3ncccc3c2)cn1` [Example 528, 5,7-dimethyl-6-(((1-(quinolin-6-ylmethyl)-1H-pyrrolo[3,2-c]pyridin-6-yl)amino)methyl)isoquinolin-1-amine], the half-maximal effective concentration (EC50) is more than 1000 nM.

For `Cc1cc2c(N)nccc2c(C)c1CNc1cc(C(F)c2cn3cc(C4CC4)ccc3n2)ncn1` (stereo not shown) [Example 529, 6-(((6-((6-cyclopropylimidazo[1,2-a]pyridin-2-yl)fluoromethyl)pyrimidin-4-yl)amino)methyl)-5,7-dimethylisoquinolin-1-amine], the EC50 lay in the range of 1 to 10 nM.

In the case of `Cc1cc2c(N)nccc2c(C)c1CNc1cnnc(OCc2ccc(Cn3cccn3)cc2)c1` [Example 530, 6-(((6-((4-((1H-pyrazol-1-yl)methyl)benzyl)oxy)pyridazin-4-yl)amino)methyl)-5,7-dimethylisoquinolin-1-amine], the EC50 is 10 to 100 nM.

For `Cc1cc2c(N)nccc2c(C)c1CNc1cc2c(ccn2Cc2ccc3ncc(Cl)cc3c2)cn1` [Example 531, 6-(((1-((3-chloroquinolin-6-yl)methyl)-1H-pyrrolo[3,2-c]pyridin-6-yl)amino)methyl)-5,7-dimethylisoquinolin-1-amine], the concentration giving a half-maximal response (EC50) was in the range of 10 to 100 nM.

For `Cc1cc2c(N)nccc2cc1CNc1cc(OCc2ccc(Cn3cccn3)cc2)ncn1` [Example 534, 6-(((6-((4-((1H-pyrazol-1-yl)methyl)benzyl)oxy)pyrimidin-4-yl)amino)methyl)-7-methylisoquinolin-1-amine], the concentration giving a half-maximal response (EC50) is 10 to 100 nM.

`Nc1nccc2cc(CNc3cc(OCc4ccc(Cn5cccn5)cc4)ncn3)c(C(F)(F)F)cc12` [Example 535, 6-(((6-((4-((1H-pyrazol-1-yl)methyl)benzyl)oxy)pyrimidin-4-yl)amino)methyl)-7-(trifluoromethyl)isoquinolin-1-amine]: the concentration for a half-maximal effect (EC50) lay in the range of 100 to 1000 nM.

Consider `Cc1c(CNc2cc(NCc3ccc(Cn4ccccc4=O)cc3)cnn2)ccc2c(N)nccc12` [Example 536, 1-(4-(((6-(((1-amino-5-methylisoquinolin-6-yl)methyl)amino)pyridazin-4-yl)amino)methyl)benzyl)pyridin-2(1H)-one], for which the 50% effective concentration (EC50) was less than 1 nM.

For `Cc1cc2c(N)nccc2c(C)c1CNc1cnnc(NCc2ccc(Cn3ccccc3=O)cc2)c1` [Example 537, 1-(4-(((5-(((1-amino-5,7-dimethylisoquinolin-6-yl)methyl)amino)pyridazin-3-yl)amino)methyl)benzyl)pyridin-2(1H)-one], the EC50 was less than 1 nM.

Consider `Cc1cc2c(N)nccc2c(C)c1CNc1ncnc2oc(Cc3ccc4ncc(Cl)cc4c3)nc12` [Example 538, N-((1-amino-5,7-dimethylisoquinolin-6-yl)methyl)-2-((3-chloroquinolin-6-yl)methyl)oxazolo[5,4-d]pyrimidin-7-amine], for which the EC50 was 10 to 100 nM.

As for `Cc1cc2c(N)nccc2c(C)c1CNc1ncnc2c1nc(Cc1ccc3ncc(Cl)cc3c1)n2C` [Example 539, 6-(((8-((3-chloroquinolin-6-yl)methyl)-9-methyl-9H-purin-6-yl)amino)methyl)-5,7-dimethylisoquinolin-1-amine], the EC50 was in the range of 100 to 1000 nM.

With `Cc1cc2c(N)nccc2c(C)c1CNc1ncnc2[nH]c(Cc3ccc4ccccc4c3)cc12` [Example 540, 5,7-dimethyl-6-(((6-(naphthalen-2-ylmethyl)-7H-pyrrolo[2,3-d]pyrimidin-4-yl)amino)methyl)isoquinolin-1-amine], the EC50 fell in the range of 10 to 100 nM.

Consider `Cc1cc2c(N)nccc2c(C)c1CNc1cc(OCc2ccc(Cn3cccn3)cc2)ccn1` [Example I-454, 6-(((4-((4-((1H-pyrazol-1-yl)methyl)benzyl)oxy)pyridin-2-yl)amino)methyl)-5,7-dimethylisoquinolin-1-amine], for which the half-maximal effective concentration (EC50) fell in the range of 1 to 10 nM.

On to `Cc1cc2c(N)nccc2c(C)c1CNc1ccnc(OCc2ccc(Cn3cccn3)cc2)c1` [Example I-455, 6-(((2-((4-((1H-pyrazol-1-yl)methyl)benzyl)oxy)pyridin-4-yl)amino)methyl)-5,7-dimethylisoquinolin-1-amine], for which the concentration for a half-maximal effect (EC50) lay in the range of 1 to 10 nM.

On to `Cc1cc2c(N)nccc2c(C)c1CNc1cc(OCc2ccc(Cn3ccccc3=O)cc2)c(Cl)cn1` [Example I-456, 1-(4-(((2-(((1-amino-5,7-dimethylisoquinolin-6-yl)methyl)amino)-5-chloropyridin-4-yl)oxy)methyl)benzyl)pyridin-2(1H)-one], for which the half-maximal effective concentration (EC50) lay in the range of 1 to 10 nM.

Consider `Cc1cc2c(N)nccc2c(C)c1CNc1cc2c(cn1)cnn2Cc1ccc(Cn2cccn2)cc1` [Example I-458, 6-(((1-(4-((1H-pyrazol-1-yl)methyl)benzyl)-1H-pyrazolo[4,3-c]pyridin-6-yl)amino)methyl)-5,7-dimethylisoquinolin-1-amine], for which the EC50 was in the range of 1 to 10 nM.

For the molecule `Cc1cc2c(N)nccc2c(C)c1CNc1cc2nn(Cc3ccc(Cn4cccn4)cc3)cc2cn1` [Example I-459, 6-(((2-(4-((1H-pyrazol-1-yl)methyl)benzyl)-2H-pyrazolo[4,3-c]pyridin-6-yl)amino)methyl)-5,7-dimethylisoquinolin-1-amine], the concentration giving a half-maximal response (EC50) lay within 10 to 100 nM.

Take `Cc1cc2c(N)nccc2c(C)c1CNc1cc(CCc2ccc(Cn3cccn3)cc2)ncn1` [Example I-460, 6-((6-(4-((1H-pyrazol-1-yl)methyl)phenethyl)pyrimidin-4-ylamino)methyl)-5,7-dimethylisoquinolin-1-amine]: the EC50 lay within 10 to 100 nM.

In the case of `Cc1cc2c(N)nccc2c(C)c1CNc1cc(NCc2ccc(CO)cc2)ncn1` [Example I-461, (4-(((6-(((1-amino-5,7-dimethylisoquinolin-6-yl)methyl)amino)pyrimidin-4-yl)amino)methyl)phenyl)methanol], the EC50 lay in the range of 1 to 10 nM.

As for `Cc1cc2c(N)nccc2c(C)c1CNc1cnnc(OCc2ccc(CC(=O)N(C)C)cc2)c1` [Example I-462, 2-(4-(((5-(((1-amino-5,7-dimethylisoquinolin-6-yl)methyl)amino)pyridazin-3-yl)oxy)methyl)phenyl)-N,N-dimethylacetamide], the EC50 is more than 1000 nM.
